Results on 15 compounds are retold here after patent publication US20260337212A1, “IP4-4,6 SUBSTITUTED DERIVATIVE COMPOUNDS FOR USE IN THE TREATMENT, INHIBITION OF PROGRESSION, AND PREVENTION OF ECTOPIC CALCIFICATION” (SANIFIT THERAPEUTICS, S.A., priority 2022, published 2026).

Where a name gives a salt, the structure may show the parent alone. Where only a bound is given, the exact number is not on record here.

The nature of the first test: In vitro inhibition of calcium phosphate crystallization in human plasma (spectrophotometric). In kind it is biochemical. Conditions: 0-100 μM, 1.5 mM phosphate, 12.5 mM calcium, pH 7.4, 30 min, rt, read-out: Relative Potency (EC50, inhibition of calcium phosphate crystallization). The procedure:
The in vitro efficacy of the IP4-4,6 substituted derivatives (e.g., Compounds 1 to 53) of the invention on the inhibition of calcium phosphate crystallization in human plasma samples was evaluated according to a spectrophotometric assay previously described in the art (Ferrer M, et al., Sci Rep 2017; 7:6858, doi:10.1038/s41598-017-07203-x).
A 96-well plate was employed. Plasma was spiked (1 volume of the IP4-4,6 substituted derivatives of the invention per 19 volumes of plasma) with increasing concentrations of the derivatives in the range of 0-100 μM. Plasma was then centrifuged at 10,000 g at rt and subsequently mixed with a mixture of 5 mM hydrogen phosphate and 41.67 mM calcium to attain final concentrations of 1.5 mM phosphate and 12.5 mM calcium, respectively. All reagent solutions were filtered, and pH adjusted to 7.4.
Crystallization of calcium phosphate was monitored spectrophotometrically for 30 min at rt by measuring the increments in absorbance at 550 nm using the Biotek Powerwave XS Microplate spectrophotometer (BioTek Instruments, Inc., Winooski, VT, US). The plate was incubated at rt in an orbital shaker and absorbance measured every 3 min.
Plasma crystallization was assessed based on slope measurement in the linear range between 6 and 24 min from plots of increase in absorbance versus logarithm of time. The efficacy of different myo-inositol phosphates derivatives in preventing in vitro formation of calcium phosphate crystals was assessed in human plasma samples using the slopes obtained between 6- and 24-min. Inhibition of crystallization was measured by comparing the slopes of the control sample (blank plasma) with those of samples containing the inhibitor as shown below: […]
As to “4,6-O-(6-(4-carboxy-1H-1,2,3-triazol-1-yl) hexyl)-myo-inositol-1,2,3,5-tetrakis(phosphate) decasodium salt [Compound 40]”, the EC50 – broadly, the concentration that produces a half-maximal response – was no more than 5 µM.

Turning to `O=C(O)CCCOC1C(OP(=O)(O)O)C(OCCCC(=O)O)C(OP(=O)(O)O)C(OP(=O)(O)O)C1OP(=O)(O)O` (stereo not drawn) [Compound 52, 4,6-O-bis(3-carboxypropyl)-myo-inositol-1,2,3,5-tetrakis(phosphate) decasodium salt], the EC50 is no more than 5 µM.

As to `O=P(O)(O)OC1C(OCCCCCn2cncn2)C(OP(=O)(O)O)C(OP(=O)(O)O)C(OP(=O)(O)O)C1OCCCCCn1cncn1` (stereo not drawn) [Compound 17, 4,6-O-bis(5-(1H-1,2,4-triazol-1-yl)pentyl)-myo-inositol-1,2,3,5-tetrakis(phosphate) octasodium salt], the concentration giving a half-maximal response (EC50) was greater than 10 µM.

For “4,6-O-bis((3-(4-carboxybutanamido)propyl))-myo-inositol-1,2,3,5-tetrakis(phosphate) decasodium salt [Compound 45]”, the EC50 was no more than 5 µM.

As for `O=P(O)(O)O[C@@H]1[C@@H](OCCC2CCCC2)[C@H](OP(=O)(O)O)[C@H](OP(=O)(O)O)[C@H](OP(=O)(O)O)[C@H]1OCCC1CCCC1` [Compound 29, 4,6-O-bis(2-cyclopentylethyl)-myo-inositol-1,2,3,5-tetrakis(phosphate) octasodium salt], the EC50 is no more than 5 µM.

`O=C(NCCCCCOC1C(OP(=O)(O)O)C(OCCCCCNC(=O)c2cccs2)C(OP(=O)(O)O)C(OP(=O)(O)O)C1OP(=O)(O)O)c1cccs1` (stereo not drawn) [Compound 49, 4,6-O-bis(5-(thiophene-2-carboxamido)pentyl)-myo-inositol-1,2,3,5-tetrakis(phosphate) octasodium salt]: the half-maximal effective concentration (EC50) was in the range of 5 to 10 µM.

Regarding “4,6-O-diheptyl-myo-inositol-1,2,3,5-tetrakis(phosphate) octasodium salt [Compound 5]”, the EC50 was no more than 5 µM.

Regarding `NCCCCCO[C@@H]1[C@@H](OP(=O)(O)O)[C@H](OCCCCCN)[C@@H](OP(=O)(O)O)[C@@H](OP(=O)(O)O)[C@H]1OP(=O)(O)O` [Compound 14, 4,6-O-bis(5-aminopentyl)-myo-inositol-1,2,3,5-tetrakis(phosphate) octasodium salt], the EC50 was no more than 5 µM.

On to `O=P(O)(O)O[C@@H]1[C@@H](OCCCC(F)(F)F)[C@H](OP(=O)(O)O)[C@H](OP(=O)(O)O)[C@H](OP(=O)(O)O)[C@H]1OCCCC(F)(F)F` [Compound 22, 4,6-O-bis(4,4,4-trifluorobutyl)-myo-inositol-1,2,3,5-tetrakis(phosphate) octasodium salt], for which the EC50 is no more than 5 µM.

Consider `COCc1cn(CCCCCCOC2C(OP(=O)(O)O)C(OCCCCCCn3cc(C(=O)O)nn3)C(OP(=O)(O)O)C(OP(=O)(O)O)C2OP(=O)(O)O)nn1` (stereo not drawn) [Compound 41, 4-O-(6-(4-carboxy-1H-1,2,3-triazol-1-yl)hexyl)-6-O-(6-(4-(methoxymethyl)-1H-1,2,3-triazol-1-yl)hexyl)-myo-inositol-1,2,3,5-tetrakis(phosphate) nonasodium salt], for which the EC50 is no more than 5 µM.

Consider `O=P(O)(O)OC1C(OCCC2CC2)C(OP(=O)(O)O)C(OP(=O)(O)O)C(OP(=O)(O)O)C1OCCC1CC1` (stereo not drawn) [Compound 28, 4,6-O-bis(2-cyclopropylethyl)-myo-inositol-1,2,3,5-tetrakis(phosphate) octasodium salt], for which the EC50 was no more than 5 µM.

In the case of “4,6-O-bis(3-(4-(2-carboxyethyl)-1H-1,2,3-triazol-1-yl)propyl)-myo-inositol-1,2,3,5-tetrakis(phosphate) decasodium salt [Compound 35]”, the EC50 is no more than 5 µM.

In the case of “4,6-O-bis(5-(4-(methoxymethyl)-1H-1,2,3-triazol-1-yl) pentyl)-myo-inositol-1,2,3,5-tetrakis(phosphate) octasodium salt [Compound 38]”, the EC50 was no more than 5 µM.

Consider “4,6-O-bis(6-(4-(methoxymethyl)-1H-1,2,3-triazol-1-yl) hexyl)-myo-inositol-1,2,3,5-tetrakis(phosphate) octasodium salt [Compound 39]”, for which the EC50 was no more than 5 µM.

A short description of the next test: Rat calcinosis cutis/calciphylaxis model (vitamin D3 and FeCl3): skin plaque calcification. It is filed as in vivo, Sprague Dawley rat. Conditions: 60 mg/kg s.c. daily D1-D8; HC (vitamin D3 50,000 IU/kg), FeCl3 0.5 mg/kg. On the procedure:
The dose-response efficacy of IP4-4,6 derivatives in the prevention and treatment of calcinosis cutis and calciphylaxis (CUA) induced by vitamin D3 and FeCl3 in a rat model was used. The model evaluated the effects of Compound 27 and IP6 on the formation of calcified skin plaques in rats for a duration of 8 days. Animals were sensitized at low concentration (LC, 35,000 IU/kg) and high concentration (HC, 50,000 IU/kg) doses of vitamin D3. A FeCl3 solution (0.5 mg/kg) was used as challenger to induce the formation of skin plaques. All animals were weighed every day before treatment.
Eighty-six male Sprague Dawley (SD) rats (Envigo Corp., Huntingdon, GB) weighing approximately 250-300 g were used. The animals were fed with a standard LASQCdiet® Rod14-H diet (LASvendi, Soest, DE). The animals were divided in 8 groups, 6 to 12 animals per group, as follows:
The following solutions were prepared: (a) 17,500 IU/mL (LC) and 25,000 IU/mL (HC) vitamin D3 (cholecalciferol, Duphafral D3 1000; Zoetis Inc., Parsippany, NJ, US), (b) 0.3 mg/mL FeCl3 (FeCl3·6H2O, 99%, Scharlab S. L., Barcelona, E S), (c) 30 mg/mL IP6 (660 g/mol phytic acid, pH 6.5-7.7), and (d) 15, 30, and 50 mg/mL Compound 27 (754.45 g/mol free acid, pH 6.5-7.7). All solutions were prepared in a 0.9% (w/v) physiological saline NaCl medium. An application volume of 2 mL/kg was employed.
Group 1—Control (sham), 6 animals. Animals in group 1 were administered subcutaneously physiological saline (0.9% (w/v) NaCl solution daily from D1 to D3 in the interscapular space, and with one saline 0.9% injection at each of the two ventral sites in the thorax on D4. Animals in group 1 were not administered Vit D or FeCl3 solutions.
Group 2—Physiological saline solution low concentration (Vehicle LC): Vit D 35,000 IU/kg, 0.5 mg/kg FeCl3 solution, 10 animals. Vit D at dose 35,000 IU/kg was administered subcutaneously x 3 consecutive days (D1, D2, D3), and one 0.5 mg/kg FeCl3 injection at each of the two ventral sites in the thorax on D4. This group received a daily saline 0.9% s.c. treatment (D1 to D8).
Group 3—Compound 27 60 mg/kg LC: Vit D 35,000 IU/kg, 0.5 mg/kg FeCl3, 10 animals. Vit D at dose 35,000 IU/kg was administered subcutaneously x 3 consecutive days (D1, D2, D3), and one 0.5 mg/kg FeCl3 injection at each of the two ventral sites in the thorax on D4. This group received a daily Compound 27 s.c. treatment at 60 mg/kg dose (D1 to D8).
Group 4—Physiological saline solution high concentration (Vehicle HC): Vit D 50,000 IU/kg, 0.5 mg/kg FeCl3, 12 animals. Vit D at dose 50,000 IU/kg was administered subcutaneously x 3 consecutive days (D1, D2, D3), and one 0.5 mg/kg FeCl3 injection at each of the two ventral sites in the thorax on D4. This group received a daily saline 0.9% s.c. treatment (D1 to D8).
Group 5—IP6 60 mg/kg HC, Vit D 50,000 IU/kg, 0.5 mg/kg FeCl3, 12 animals. Vit D at dose 50,000 IU/kg was administered subcutaneously x 3 consecutive days (D1, D2, D3), and one 0.5 mg/kg FeCl3 injection at each of the two ventral sites in the thorax on D4. This group received a daily IP6 s.c. treatment at 60 mg/kg dose (D1 to D8).
Group 6—Compound 27 30 mg/kg HC, Vit D 50,000 IU/kg, 0.5 mg/kg FeCl3, 12 animals. Vit D at dose 50,000 IU/kg was administered subcutaneously x 3 consecutive days (D1, D2, D3), and one 0.5 mg/kg FeCl3 injection at each of the two ventral sites in the thorax on D4. This group received a daily Compound 27 s.c. treatment at 30 mg/kg dose (D1 to D8).
Group 7—Compound 27 60 mg/kg […], Vit D 50,000 IU/kg, 0.5 mg/kg FeCl3, 12 animals. Vit D at dose 50,000 IU/kg was administered subcutaneously x 3 consecutive days (D1, D2, D3), and one 0.5 mg/kg FeCl3 injection at each of the two ventral sites in the thorax on D4. This group received a daily Compound 27 s.c. treatment at 60 mg/kg dose (D1 to D8).
Group 8—Compound 27 100 mg/kg HC, Vit D 50,000 IU/kg, 0.5 mg/kg FeCl3, 12 animals. […]
Regarding `O=P(O)(O)O[C@H]1[C@H](OP(=O)(O)O)[C@@H](OP(=O)(O)O)[C@H](OP(=O)(O)O)[C@@H](OP(=O)(O)O)[C@H]1OP(=O)(O)O` [IP6, phytic acid, reference compound], the “Skin plaque % inhibition of calcification” value turned out to be 58.8 ± 14.4 %.
